Measured values reported in ChEMBL document CHEMBL1201862, “PubChem BioAssay data set” (2004).
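Each compound was tested at five concentrations against cells in 96-well plates for 48 hours. GI50 is the concentration that inhibits growth by half.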 The source made the active and inactive calls. No stated cut-off is given here; in the data, active = GI50 up to about 1.1 µM and inactive = higher.

Legend:
Assay in all cases: inhibition of tumour cell growth, NCI panel, 48 h
[1] = system: 786-0
[2] = system: A498
[3] = system: A549
[4] = system: ACHN
[5] = system: CAKI-1
[6] = system: CCRF-CEM
[7] = system: COLO 205
[8] = system: DLD-1
[9] = system: DMS-114
[10] = system: DMS-273
[11] = system: EKVX
[12] = system: HCC 2998
[13] = system: HCT-116
[14] = system: HCT-15
[15] = system: HL-60
[16] = system: HOP-62
[17] = system: HOP-92
[18] = system: HT-29
[19] = system: IGROV-1
[20] = system: K562
[21] = system: KM-20L2
[22] = system: KM12
[23] = system: LXFL 529
[24] = system: M14
[25] = system: M19-MEL
[26] = system: MOLT-4
[27] = system: Malme-3M
[28] = system: NCI-H226
[29] = system: NCI-H23
[30] = system: NCI-H460
[31] = system: NCI-H522
[32] = system: OVCAR-3
[33] = system: OVCAR-4
[34] = system: OVCAR-5
[35] = system: OVCAR-8
[36] = system: RPMI-8226
[37] = system: RXF 393
[38] = system: RXF 631
[39] = system: SF-268
[40] = system: SF-295
[41] = system: SF-539
[42] = system: SK-MEL-28
[43] = system: SK-MEL-2
[44] = system: SK-OV-3
[45] = system: SN12C
[46] = system: SNB-19
[47] = system: SNB-75
[48] = system: SNB-78
[49] = system: SW-620
[50] = system: TK-10
[51] = system: U-251
[52] = system: UACC-257
[53] = system: UACC-62
[54] = system: UO-31
[55] = system: XF498
[56] = system: HOP-18
[57] = system: LOX IMVI
[58] = system: SK-MEL-5
[59] = system: SR

N#C/C(=C\c1cc(O)cc(O)c1)C(N)=O
GI50 [1]: > 100 µM (inactive)
GI50 [2]: > 100 µM (inactive)
GI50 [3]: > 100 µM (inactive)
GI50 [4]: > 100 µM (inactive)
GI50 [5]: > 100 µM (inactive)
GI50 [6]: > 100 µM (inactive)
GI50 [7]: > 100 µM (inactive)
GI50 [8]: > 100 µM (inactive)
GI50 [9]: > 100 µM (inactive)
GI50 [10]: > 100 µM (inactive)
GI50 [11]: > 100 µM (inactive)
GI50 [12]: > 100 µM (inactive)
GI50 [13]: > 100 µM (inactive)
GI50 [14]: > 100 µM
GI50 [15]: > 10 µM (inactive)
GI50 [16]: > 100 µM (inactive)
GI50 [17]: > 100 µM (inactive)
GI50 [18]: > 100 µM (inactive)
GI50 [19]: > 100 µM (inactive)
GI50 [20]: > 100 µM (inactive)
GI50 [21]: > 100 µM (inactive)
GI50 [22]: 80.5 µM (inactive)
GI50 [23]: > 100 µM (inactive)
GI50 [24]: > 100 µM (inactive)
GI50 [25]: > 100 µM (inactive)
GI50 [26]: > 100 µM (inactive)
GI50 [27]: > 100 µM (inactive)
GI50 [28]: > 100 µM (inactive)
GI50 [29]: > 100 µM (inactive)
GI50 [30]: > 100 µM (inactive)
GI50 [31]: 21 µM (inactive)
GI50 [32]: > 100 µM (inactive)
GI50 [33]: > 100 µM (inactive)
GI50 [34]: > 100 µM (inactive)
GI50 [35]: > 100 µM (inactive)
GI50 [36]: > 100 µM (inactive)
GI50 [37]: > 100 µM (inactive)
GI50 [38]: > 100 µM (inactive)
GI50 [39]: > 100 µM (inactive)
GI50 [40]: > 100 µM (inactive)
GI50 [41]: > 100 µM (inactive)
GI50 [42]: > 100 µM (inactive)
GI50 [43]: > 100 µM (inactive)
GI50 [44]: > 100 µM (inactive)
GI50 [45]: > 100 µM (inactive)
GI50 [46]: > 100 µM (inactive)
GI50 [47]: 22 µM (inactive)
GI50 [48]: > 100 µM (inactive)
GI50 [49]: > 100 µM (inactive)
GI50 [50]: > 100 µM (inactive)
GI50 [51]: > 100 µM (inactive)
GI50 [52]: > 100 µM (inactive)
GI50 [53]: > 100 µM (inactive)
GI50 [54]: > 100 µM (inactive)
GI50 [55]: > 100 µM (inactive)

NNC(=O)C(=O)NN=C(C(Cl)(Cl)CO)C(Cl)(Cl)CO
GI50 [1]: 36.4 µM (inactive)
GI50 [2]: > 100 µM (inactive)
GI50 [3]: > 100 µM (inactive)
GI50 [4]: 31.3 µM (inactive)
GI50 [5]: 26.9 µM (inactive)
GI50 [6]: 19.1 µM (inactive)
GI50 [7]: > 100 µM (inactive)
GI50 [8]: 22.6 µM (inactive)
GI50 [10]: 65.9 µM (inactive)
GI50 [11]: 40.7 µM (inactive)
GI50 [12]: 31 µM (inactive)
GI50 [13]: 20.6 µM (inactive)
GI50 [14]: 25.7 µM
GI50 [15]: 22.1 µM (inactive)
GI50 [56]: > 100 µM (inactive)
GI50 [16]: 70.8 µM (inactive)
GI50 [17]: 33.4 µM (inactive)
GI50 [18]: 37.3 µM (inactive)
GI50 [19]: > 100 µM (inactive)
GI50 [20]: 36.7 µM (inactive)
GI50 [21]: 44.5 µM (inactive)
GI50 [22]: 44.1 µM (inactive)
GI50 [57]: 16.9 µM (inactive)
GI50 [23]: 28.2 µM (inactive)
GI50 [24]: 24.4 µM (inactive)
GI50 [25]: 20.1 µM (inactive)
GI50 [26]: 21.2 µM (inactive)
GI50 [27]: 19.8 µM (inactive)
GI50 [28]: > 100 µM (inactive)
GI50 [29]: 30.5 µM (inactive)
GI50 [30]: 44.9 µM (inactive)
GI50 [31]: 12.1 µM (inactive)
GI50 [32]: 25.6 µM (inactive)
GI50 [33]: > 100 µM (inactive)
GI50 [34]: 31.3 µM (inactive)
GI50 [35]: 21.3 µM (inactive)
GI50 [36]: 27.4 µM (inactive)
GI50 [37]: 21.9 µM (inactive)
GI50 [38]: 21.3 µM (inactive)
GI50 [39]: 36.4 µM (inactive)
GI50 [40]: 66.1 µM (inactive)
GI50 [41]: 25.2 µM (inactive)
GI50 [42]: 25.6 µM (inactive)
GI50 [43]: 22.1 µM (inactive)
GI50 [58]: 40.4 µM (inactive)
GI50 [44]: > 100 µM (inactive)
GI50 [45]: > 100 µM (inactive)
GI50 [46]: 48.1 µM (inactive)
GI50 [47]: 32.5 µM (inactive)
GI50 [48]: 21.5 µM (inactive)
GI50 [59]: 18.6 µM (inactive)
GI50 [49]: 18.4 µM (inactive)
GI50 [50]: 60.3 µM (inactive)
GI50 [51]: 19.5 µM (inactive)
GI50 [52]: 30.6 µM (inactive)
GI50 [53]: 65.5 µM (inactive)
GI50 [54]: 45.7 µM (inactive)
GI50 [55]: 16.6 µM (inactive)
